According to patent US6355785B1, “Guanosine-rich oligonucleotide integrase inhibitors” (Aronex Pharmaceuticals, Inc., priority 1993, dated 2002):
Where “and” joins values, the source holds several entries; their conditions need not be identical. Identical values can stand only once. Like-named read-outs stand apart in the source and are kept apart here.

How the values were obtained:
[1] = test system: HIV-1; details: 3.0 mg/kg every other day, 14-day treatment, three patients
[2] = test system: Tacaribe
[3] = test system: Influenza A (H3N2)
[4] = test system: Vesicular Stomatitis virus
[5] = biological target: T1, HIV-1 integrase deletion mutant IN50-288 (Human immunodeficiency virus type 1 group M subtype B, UniProt P12497); assay: Disintegration assay, IN50-288; format: biochemical; details: IN50-288, 3 μM
T1 construct: purchased gift of Drs; T. Jenkins and R. Craigie, NIDDK, NIH (not bought)

[6] = biological target: T2, HIV-1 integrase deletion mutant IN1-212 (Human immunodeficiency virus type 1 group M subtype B, UniProt P12497); assay: Disintegration assay, IN1-212; format: biochemical
T2 construct: purchased gift of Drs; T. Jenkins and R. Craigie, NIDDK, NIH (not bought)

[7] = biological target: T3, FIV integrase (Feline immunodeficiency virus, UniProt P16088); assay: FIV integrase 3′-processing assay; format: biochemical
T3 construct: Purified recombinant wild-type FIV and SIV integrases were generous gifts; purchased gift of Dr. S. Chow (UCLA) (not bought)

[8] = test system: Vero; format: cell-based
Method: (§1) Cytotoxicity Analysis. The cytotoxicity of T30177 was assayed as described above. […] The degree of cell proliferation was determined according to the manufacturer's instructions.
(§2) Cytotoxicity Assays. The cytotoxicity of T30177 was determined using several different cell lines and primary human cells as described above. The cytotoxicity profile obtained for log phase growing cells was variable depending upon the cell line used, while the slower growing PBMCs, PBLs, and macrophages all tolerated the compound at concentrations exceeding 100 μM as monitored using the trypan blue exclusion, [^3H]thymidine uptake, or [^3H]leucine uptake techniques.

[9] = test system: NIH3T3; format: cell-based
Method: as §1, §2

[10] = test system: Macrophages; format: cell-based, human
Method: (§3) In other experiments of the effect of T30177 on the viability of primary human PBMCs, PBLs and macrophages was determined using the trypan blue dye exclusion technique. Griffiths, B., IRL Press, p. 48 (1992), or by measuring the degree of [^3H]thymidine or [^3]leucine uptake in these cells (McGrath, M. S., et al. Proc. Natl. Acad. Sci. USA 86:2844-2848 (1989)).
as §2

[11] = test system: PBMC; format: cell-based, human
Method: as §3, §2

[12] = test system: PBLs; format: cell-based, human
Method: as §3, §2

[13] = set-up: species or system cynomolgus monkeys; details: cynomolgus monkey, in vivo
Method: Dosing. Twelve experimentally naive cynomolgus monkeys were assigned to four groups of three animals each. Prior to dosing, each animal was lightly sedated with a combination of ketamine (1 0 mg/kg) and diazepam (0.5 mg/kg), and a catheter was introduced into the femoral artery for recording central arterial pressure. Monkeys were given a single intravenous infusion of 5, 20, or 50 mg AR177/kg or saline over ten minutes through a cephalic vein catheter using a Harvard infusion pump. […] The concentration of AR177 in dosing solutions was confirmed post experiment by absorbance at 280 nm on a spectrophotometer. […] Electrocardiograms (ECGs), central pressure, and heart rate were recorded continuously for 120 minutes following the initiation of doing. […]
Serum chemistry parameters. The following were determined: sodium, potassium, chloride, carbon dioxide, total bilirubin, direct bilirubin, indirect bilirubin, alkaline phosphatase, lactate dehydrogenase, aspartate aminotransferase, alanine aminotransferase, gamma-glutamyltransferase, calcium, phosphorus, glucose, urea nitrogen, creatinine, uric acid total protein, albumin, globulin, cholesterol and triglycerides. The samples were analyzed at Sierra Nevada Laboratories (Reno, Nev.).

[14] = biological target: T4, recombinant RT (HIV-1BH10) (Human immunodeficiency virus type 1 group M subtype B, UniProt P03366); assay: Reverse transcriptase enzyme inhibition assays; format: biochemical
T4 construct: Purified recombinant RT (HIV-1BH10) was obtained from the University of Alabama; purchased University of Alabama, Center for AIDS research (obtained from)

5′-gtggtgggtgggtgggt-3′ [T30177] (GTGGTGGGTGGGTGGGT; phosphorothioate termini, further chemistry not given here)
viral load (plasma HIV-1 RNA) [1]: viral load was significantly reduced
IC50 virus-induced cytopathogenicity [2]: >50 µg/mL
MCC minimum concentration altering normal cell morphology [2]: >50 μg/mL
Body Weights (2.5 mg/kg, Day 7): 3.1 ± 0.6
Body Weights (2.5 mg/kg, Day 14): 3.2 ± 0.6
Body Weights (2.5 mg/kg, Day 21): 3.2 ± 0.6
Body Weights (2.5 mg/kg, Day 25): 3.1 ± 0.6
Body Weights (2.5 mg/kg, Prestudy): 3.1 ± 0.5
Body Weights (10 mg/kg, Day 7): 3.2 ± 0.7
Body Weights (10 mg/kg, Day 14): 3.3 ± 0.7
Body Weights (10 mg/kg, Day 21): 3.3 ± 0.7
Body Weights (10 mg/kg, Day 25): 3.2 ± 0.7
Body Weights (10 mg/kg, Prestudy): 3.2 ± 0.7
treatment-related clinical sign (40 mg/kg): discoloration around the eyes in three high-dose animals
Body Weights (40 mg/kg, Day 7): 3.2 ± 0.6
Body Weights (40 mg/kg, Day 14): 3.3 ± 0.6
Body Weights (40 mg/kg, Day 21): 3.2 ± 0.6
Body Weights (40 mg/kg, Day 25): 3.1 ± 0.6
Body Weights (40 mg/kg, Prestudy): 3.2 ± 0.6
mortality (2.5, 10, 40 mg/kg every other day, 12 doses): No animals died
body weight (12 doses): no effects on body weight
ECG recordings (cynomolgus monkey, in vivo): No abnormalities
IC50 virus-induced cytopathogenicity ([3]; Influenza A (H3N2)): >125 µg/mL
MCC minimum concentration altering normal cell morphology ([3]; Influenza A (H3N2) assay): >200 μg/mL

5′-gtggtgggtgggtgggt-3′ (GTGGTGGGTGGGTGGGT; phosphorothioate termini, further chemistry not given here) [T30177, pPT version of parent compound I100-15, 17 mer]
IC50 virus-induced cytopathogenicity ([4]; Vesicular Stomatitis virus): >200 µg/mL
MCC minimum concentration altering normal cell morphology ([4]; Vesicular Stomatitis virus assay): 400 μg/mL
inhibition of disintegration [5]: ≤ 30%
IC50 [6]: 0.6 µM
IC50 [7]: 0.175 µM
CC50 [8]: > 100 µM
TC25 [8]: >100 µM
TC95 [8]: >100 µM
CC50 [9]: > 100 µM
TC25 [9]: >100 µM
TC95 [9]: >100 µM
CC50 [10]: > 100 µM
TC25 [10]: >100 µM
TC95 [10]: >100 µM
CC50 [11]: > 100 µM
TC25 [11]: >100 µM
TC95 [11]: >100 µM
CC50 [12]: > 100 µM
TC25 [12]: >100 µM
TC95 [12]: >100 µM
serum chemistry parameters [13]: no changes
IC50 ([14]; depending upon the template, read-out: 50% inhibitory value, viral reverse transcriptase): 1 to 10 µM
IC50 ([14]; template gapped duplex DNA, duplicate experiments, read-out: IC50 recombinant HIV-1 RT): > 5 µM and 8 µM and 10 µM
